Measured values reported in publication PMC10382584, “Macrocyclization of linear molecules by deep learning to facilitate macrocyclic drug candidates discovery” (Nature Communications, 2023).

Key:
Experiment in all cases: biochemical
Design in all cases: DiscoveRx KINOMEscan competition binding, percent of DMSO control signal at 100 nM
Details in all cases: read-out: Fig. 4a / Percent Control / Compound 1; percent of DMSO control, competition binding
CDKL2 = CDKL2 (Homo sapiens, UniProt Q92772)
Experimental: (§1) The kinase selectivity profile was performed by using the DiscoveRx KINOMEscan platform. […] Test compounds were prepared as 40× stocks in 100% DMSO and directly diluted into the assay. The results were defined as a percentage of signal between the negative (DMSO, 100% control) and the positive (control compound, 0% control) control, which was calculated as follows: percent control = [(test compound signal − positive control signal)/(negative control signal − positive control signal)] × 100.

EPHA7 = EPHA7 (Homo sapiens, UniProt Q15375)
Experimental: as §1

MST4 = biological target: T1, MST4 (Homo sapiens, UniProt Q9P289)
T1 construct: gene STK26
Experimental: as §1

TAOK1 = TAOK1 (Homo sapiens, UniProt Q7L7X3)
Experimental: as §1

GSK3B = GSK3B (Homo sapiens, UniProt P49841)
Experimental: as §1

TNIK = TNIK (Homo sapiens, UniProt Q9UKE5)
Experimental: as §1

HIPK1 = HIPK1 (Homo sapiens, UniProt Q86Z02)
Experimental: as §1

GAK = GAK (Homo sapiens, UniProt O14976)
Experimental: as §1

FGFR1 = FGFR1 (Homo sapiens, UniProt P11362)
Experimental: as §1

KIT(A829P) = KIT(A829P) (Homo sapiens, UniProt P10721, A829P)
Experimental: as §1

CDK11 = biological target: T2, CDK11 (Homo sapiens, UniProt Q9BWU1)
T2 construct: gene CDK19
Experimental: as §1

RET(M918T) = RET(M918T) (Homo sapiens, UniProt P07949, M918T)
Experimental: as §1

PIK3C2B = PIK3C2B (Homo sapiens, UniProt O00750)
Experimental: as §1

EPHB1 = EPHB1 (Homo sapiens, UniProt P54762)
Experimental: as §1

[1] = biological target: T3, RSK2(Kin.Dom.1-N-terminal) (Homo sapiens, UniProt P51812)
T3 construct: gene RPS6KA3; Kin.Dom.1-N-terminal
Experimental: as §1

AKT2 = AKT2 (Homo sapiens, UniProt P31751)
Experimental: as §1

[2] = biological target: T4, ABL1(H396P)-nonphosphorylated (Homo sapiens, UniProt P00519, H396P)
T4 construct: nonphosphorylated
Experimental: as §1

BRSK2 = BRSK2 (Homo sapiens, UniProt Q8IWQ3)
Experimental: as §1

BRAF = BRAF (Homo sapiens, UniProt P15056)
Experimental: as §1

HIPK2 = HIPK2 (Homo sapiens, UniProt Q9H2X6)
Experimental: as §1

EGFR(E746-A750del) = EGFR(E746-A750del) (Homo sapiens, UniProt P00533, DEL746-750)
Experimental: as §1

NEK7 = NEK7 (Homo sapiens, UniProt Q8TDX7)
Experimental: as §1

LZK = biological target: T5, LZK (Homo sapiens, UniProt O43283)
T5 construct: gene MAP3K13
Experimental: as §1

BTK = BTK (Homo sapiens, UniProt Q06187)
Experimental: as §1

DRAK2 = biological target: T6, DRAK2 (Homo sapiens, UniProt O94768)
T6 construct: gene STK17B
Experimental: as §1
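Note: KINOMEscan kinase panel binding assay, signal normalized between DMSO as 100% and a positive control compound as 0%.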

Chain of GSK3B (P49841 whole entry): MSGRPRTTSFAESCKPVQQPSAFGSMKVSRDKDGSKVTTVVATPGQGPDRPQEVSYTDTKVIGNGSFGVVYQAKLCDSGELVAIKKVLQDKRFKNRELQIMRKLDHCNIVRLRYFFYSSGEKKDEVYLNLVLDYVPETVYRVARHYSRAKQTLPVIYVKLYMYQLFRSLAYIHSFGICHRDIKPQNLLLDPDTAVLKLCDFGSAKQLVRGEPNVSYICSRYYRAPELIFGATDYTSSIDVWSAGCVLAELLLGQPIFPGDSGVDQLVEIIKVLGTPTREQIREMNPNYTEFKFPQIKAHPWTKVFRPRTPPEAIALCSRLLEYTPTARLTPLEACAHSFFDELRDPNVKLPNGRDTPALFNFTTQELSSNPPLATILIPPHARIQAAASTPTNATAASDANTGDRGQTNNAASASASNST
Chain of EPHA7 (Q15375 whole entry): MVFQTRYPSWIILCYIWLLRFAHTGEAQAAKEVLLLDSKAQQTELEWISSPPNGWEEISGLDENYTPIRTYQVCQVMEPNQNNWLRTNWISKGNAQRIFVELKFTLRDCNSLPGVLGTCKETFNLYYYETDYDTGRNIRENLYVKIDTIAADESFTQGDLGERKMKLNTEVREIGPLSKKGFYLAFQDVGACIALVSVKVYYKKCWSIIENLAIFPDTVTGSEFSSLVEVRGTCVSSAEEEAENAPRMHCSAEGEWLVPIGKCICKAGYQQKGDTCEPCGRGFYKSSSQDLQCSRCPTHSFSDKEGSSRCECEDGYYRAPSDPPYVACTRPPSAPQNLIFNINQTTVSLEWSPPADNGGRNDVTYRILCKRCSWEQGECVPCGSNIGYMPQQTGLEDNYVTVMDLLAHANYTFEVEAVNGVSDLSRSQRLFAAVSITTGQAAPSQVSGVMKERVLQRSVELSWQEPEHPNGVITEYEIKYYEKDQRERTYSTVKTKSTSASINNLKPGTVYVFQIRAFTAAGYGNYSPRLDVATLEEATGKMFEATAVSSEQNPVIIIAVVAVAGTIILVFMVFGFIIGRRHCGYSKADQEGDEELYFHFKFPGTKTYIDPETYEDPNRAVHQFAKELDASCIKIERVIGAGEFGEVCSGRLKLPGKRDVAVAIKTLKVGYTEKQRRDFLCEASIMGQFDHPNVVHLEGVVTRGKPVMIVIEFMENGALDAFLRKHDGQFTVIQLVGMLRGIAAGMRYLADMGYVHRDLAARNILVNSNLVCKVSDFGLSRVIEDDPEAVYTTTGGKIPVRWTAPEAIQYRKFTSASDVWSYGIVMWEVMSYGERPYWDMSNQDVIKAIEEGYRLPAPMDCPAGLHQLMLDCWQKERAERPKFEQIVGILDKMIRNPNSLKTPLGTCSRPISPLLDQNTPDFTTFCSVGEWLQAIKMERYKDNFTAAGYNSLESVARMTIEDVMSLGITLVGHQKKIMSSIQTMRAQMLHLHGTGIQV
Chain of HIPK1 (Q86Z02 whole entry): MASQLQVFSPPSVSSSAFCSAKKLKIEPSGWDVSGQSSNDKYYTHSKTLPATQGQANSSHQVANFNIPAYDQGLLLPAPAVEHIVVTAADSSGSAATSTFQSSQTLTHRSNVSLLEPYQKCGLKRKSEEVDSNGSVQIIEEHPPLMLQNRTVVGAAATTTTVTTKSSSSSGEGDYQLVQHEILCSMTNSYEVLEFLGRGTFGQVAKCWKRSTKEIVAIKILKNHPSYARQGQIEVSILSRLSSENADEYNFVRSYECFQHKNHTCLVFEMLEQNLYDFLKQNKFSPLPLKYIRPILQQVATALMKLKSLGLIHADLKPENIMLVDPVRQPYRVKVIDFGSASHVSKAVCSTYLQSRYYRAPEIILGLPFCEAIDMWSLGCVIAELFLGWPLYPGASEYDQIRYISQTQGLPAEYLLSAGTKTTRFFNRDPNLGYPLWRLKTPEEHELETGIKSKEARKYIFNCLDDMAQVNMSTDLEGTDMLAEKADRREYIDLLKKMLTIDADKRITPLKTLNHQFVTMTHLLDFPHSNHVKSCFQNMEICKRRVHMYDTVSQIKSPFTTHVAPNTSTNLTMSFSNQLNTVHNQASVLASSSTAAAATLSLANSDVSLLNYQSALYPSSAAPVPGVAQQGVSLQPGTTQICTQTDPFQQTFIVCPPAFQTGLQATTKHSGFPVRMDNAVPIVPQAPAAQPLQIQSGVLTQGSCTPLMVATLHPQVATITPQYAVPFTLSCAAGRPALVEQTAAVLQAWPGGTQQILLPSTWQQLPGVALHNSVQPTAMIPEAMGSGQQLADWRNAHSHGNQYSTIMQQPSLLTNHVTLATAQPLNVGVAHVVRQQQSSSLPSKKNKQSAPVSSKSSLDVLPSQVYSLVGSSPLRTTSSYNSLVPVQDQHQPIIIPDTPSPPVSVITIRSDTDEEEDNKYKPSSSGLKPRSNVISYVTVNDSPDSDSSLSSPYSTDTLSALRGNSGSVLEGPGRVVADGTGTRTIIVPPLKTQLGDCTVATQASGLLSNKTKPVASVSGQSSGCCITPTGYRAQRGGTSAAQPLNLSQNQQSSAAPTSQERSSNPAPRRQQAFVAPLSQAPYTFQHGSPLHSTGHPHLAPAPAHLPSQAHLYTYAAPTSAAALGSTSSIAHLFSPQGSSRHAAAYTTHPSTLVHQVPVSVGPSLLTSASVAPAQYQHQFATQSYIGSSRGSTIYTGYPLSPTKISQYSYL
T6 sequence (O94768 whole entry): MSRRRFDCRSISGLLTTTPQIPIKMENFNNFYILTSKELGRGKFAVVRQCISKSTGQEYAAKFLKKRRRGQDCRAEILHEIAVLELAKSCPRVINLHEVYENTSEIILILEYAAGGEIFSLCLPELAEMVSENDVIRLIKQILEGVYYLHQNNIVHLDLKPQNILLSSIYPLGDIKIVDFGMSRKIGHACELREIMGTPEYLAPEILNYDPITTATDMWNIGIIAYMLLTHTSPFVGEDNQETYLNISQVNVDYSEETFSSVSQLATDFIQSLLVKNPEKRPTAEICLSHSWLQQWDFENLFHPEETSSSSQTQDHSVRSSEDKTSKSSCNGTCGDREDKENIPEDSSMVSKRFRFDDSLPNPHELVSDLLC
T3 sequence (P51812 whole entry): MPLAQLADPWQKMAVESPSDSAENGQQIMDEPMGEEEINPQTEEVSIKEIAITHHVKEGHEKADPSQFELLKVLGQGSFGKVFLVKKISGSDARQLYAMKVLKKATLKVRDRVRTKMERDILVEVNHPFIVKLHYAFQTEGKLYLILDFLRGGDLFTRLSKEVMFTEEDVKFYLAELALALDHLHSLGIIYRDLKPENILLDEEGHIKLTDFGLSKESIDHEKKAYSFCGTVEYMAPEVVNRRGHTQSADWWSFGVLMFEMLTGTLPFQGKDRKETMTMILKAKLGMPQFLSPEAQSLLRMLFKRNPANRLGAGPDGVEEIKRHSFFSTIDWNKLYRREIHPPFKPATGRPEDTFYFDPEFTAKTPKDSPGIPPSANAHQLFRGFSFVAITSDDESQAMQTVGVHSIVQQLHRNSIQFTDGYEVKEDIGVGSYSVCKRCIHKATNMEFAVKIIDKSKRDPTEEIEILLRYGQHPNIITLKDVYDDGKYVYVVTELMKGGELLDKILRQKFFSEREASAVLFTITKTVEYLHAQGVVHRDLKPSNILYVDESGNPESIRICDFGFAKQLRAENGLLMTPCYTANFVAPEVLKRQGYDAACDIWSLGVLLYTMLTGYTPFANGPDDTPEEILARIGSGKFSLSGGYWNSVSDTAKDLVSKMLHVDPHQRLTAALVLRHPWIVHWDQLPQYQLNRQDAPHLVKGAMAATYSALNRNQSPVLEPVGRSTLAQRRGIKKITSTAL
Chain of BRAF (P15056 whole entry): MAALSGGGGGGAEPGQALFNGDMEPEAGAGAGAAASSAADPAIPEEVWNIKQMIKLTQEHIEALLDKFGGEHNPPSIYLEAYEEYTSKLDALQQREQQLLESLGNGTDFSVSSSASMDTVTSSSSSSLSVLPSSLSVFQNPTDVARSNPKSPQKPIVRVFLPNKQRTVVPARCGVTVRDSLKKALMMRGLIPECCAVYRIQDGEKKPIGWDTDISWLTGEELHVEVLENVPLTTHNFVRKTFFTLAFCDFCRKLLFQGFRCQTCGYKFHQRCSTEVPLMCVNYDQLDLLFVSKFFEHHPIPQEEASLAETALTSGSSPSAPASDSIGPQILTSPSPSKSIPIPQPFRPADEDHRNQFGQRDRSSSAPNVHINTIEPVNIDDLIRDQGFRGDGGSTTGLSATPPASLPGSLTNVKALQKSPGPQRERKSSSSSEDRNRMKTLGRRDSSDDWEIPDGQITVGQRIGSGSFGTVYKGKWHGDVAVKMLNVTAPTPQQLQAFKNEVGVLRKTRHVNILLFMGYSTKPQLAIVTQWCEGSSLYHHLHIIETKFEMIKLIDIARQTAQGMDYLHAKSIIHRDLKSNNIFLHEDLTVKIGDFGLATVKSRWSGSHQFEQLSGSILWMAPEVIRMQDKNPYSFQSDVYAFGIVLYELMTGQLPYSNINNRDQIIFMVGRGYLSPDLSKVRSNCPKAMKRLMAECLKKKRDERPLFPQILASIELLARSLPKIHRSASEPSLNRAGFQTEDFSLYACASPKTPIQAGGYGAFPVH
Chain of NEK7 (Q8TDX7 whole entry): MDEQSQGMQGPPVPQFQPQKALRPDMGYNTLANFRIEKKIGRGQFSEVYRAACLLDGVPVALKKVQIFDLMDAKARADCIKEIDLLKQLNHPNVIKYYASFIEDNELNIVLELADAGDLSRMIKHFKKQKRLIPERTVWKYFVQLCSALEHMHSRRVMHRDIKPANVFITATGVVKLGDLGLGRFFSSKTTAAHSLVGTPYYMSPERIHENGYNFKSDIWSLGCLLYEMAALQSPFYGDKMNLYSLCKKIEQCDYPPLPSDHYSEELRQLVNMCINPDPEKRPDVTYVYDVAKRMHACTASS

Structure (SMILES): Cc1cnc2nc1Nc1cccc(c1)COCc1cc(ccc1OCCN1CCCC1)N2 [Compound 1]
- remaining binding at 0.1 µM (CDKL2): 95%
- remaining binding at 0.1 µM (EPHA7): 98%
- remaining binding at 0.1 µM (MST4): 100%
- remaining binding at 0.1 µM (TAOK1): 72%
- remaining binding at 0.1 µM (GSK3B): 84%
- remaining binding at 0.1 µM (TNIK): 80%
- remaining binding at 0.1 µM (HIPK1): 66%
- remaining binding at 0.1 µM (GAK): 36%
- remaining binding at 0.1 µM (FGFR1): 89%
- remaining binding at 0.1 µM (KIT(A829P)): 45%
- remaining binding at 0.1 µM (CDK11): 96%
- remaining binding at 0.1 µM (RET(M918T)): 96%
- remaining binding at 0.1 µM (PIK3C2B): 97%
- remaining binding at 0.1 µM (EPHB1): 97%
- remaining binding at 0.1 µM [1]: 56%
- remaining binding at 0.1 µM (AKT2): 89%
- remaining binding at 0.1 µM [2]: 37%
- remaining binding at 0.1 µM (BRSK2): 94%
- remaining binding at 0.1 µM (BRAF): 93%
- remaining binding at 0.1 µM (HIPK2): 100%
- remaining binding at 0.1 µM (EGFR(E746-A750del)): 89%
- remaining binding at 0.1 µM (NEK7): 72%
- remaining binding at 0.1 µM (LZK): 63%
- remaining binding at 0.1 µM (BTK): 86%
- remaining binding at 0.1 µM (DRAK2): 100%
